Results taken from publication PMC7265341, “Quantifying CDK inhibitor selectivity in live cells” (Nature Communications, 2020).
Like-named read-outs stand apart in the source and are kept apart here. Blank lines part the entries; values can stand above or below the molecule they belong to.

How the values were obtained:
[1] = target: CDK14/Cyclin Y (Homo sapiens, UniProt O94921); assay: NanoBRET live-cell target engagement, CDK14-NanoLuc/Cyclin Y in HEK-293; type: binding; conditions: CDK14/Y, 10µM
[2] = target: CDK15/Cyclin Y (Homo sapiens, UniProt Q96Q40); assay: NanoBRET live-cell target engagement, NanoLuc-CDK15/Cyclin Y in HEK-293; type: binding; conditions: CDK15/Y, 10µM
CDK15/Cyclin Y, sequence (Q96Q40 whole entry): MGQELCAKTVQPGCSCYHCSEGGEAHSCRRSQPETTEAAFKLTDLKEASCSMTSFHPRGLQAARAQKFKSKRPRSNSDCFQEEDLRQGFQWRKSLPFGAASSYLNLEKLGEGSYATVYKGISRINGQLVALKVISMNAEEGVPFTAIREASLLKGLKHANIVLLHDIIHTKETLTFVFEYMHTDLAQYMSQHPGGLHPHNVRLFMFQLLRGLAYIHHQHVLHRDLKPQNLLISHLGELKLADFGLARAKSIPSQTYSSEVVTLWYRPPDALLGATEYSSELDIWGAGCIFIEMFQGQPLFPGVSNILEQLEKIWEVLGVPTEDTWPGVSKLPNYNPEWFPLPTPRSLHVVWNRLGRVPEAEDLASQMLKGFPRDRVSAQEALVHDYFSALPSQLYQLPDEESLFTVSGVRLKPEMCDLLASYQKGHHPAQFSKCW
CDK15/Cyclin Y, sequence (Q8ND76 whole entry partner): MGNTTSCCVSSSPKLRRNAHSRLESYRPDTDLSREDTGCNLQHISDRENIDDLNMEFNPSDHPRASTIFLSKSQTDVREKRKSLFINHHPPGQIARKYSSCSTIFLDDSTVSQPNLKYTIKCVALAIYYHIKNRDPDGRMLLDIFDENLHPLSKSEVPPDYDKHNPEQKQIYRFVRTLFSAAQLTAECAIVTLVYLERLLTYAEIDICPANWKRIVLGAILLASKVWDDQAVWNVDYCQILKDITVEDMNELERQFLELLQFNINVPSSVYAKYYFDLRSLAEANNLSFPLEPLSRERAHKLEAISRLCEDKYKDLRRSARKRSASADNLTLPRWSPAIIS

[3] = test system: all 21 human CDKs; assay: Live-cell selectivity profile across all 21 CDK/cyclin complexes in HEK-293; type: binding; conditions: live cells
[4] = target: CDK18/Cyclin Y (Homo sapiens, UniProt Q07002); assay: NanoBRET live-cell target engagement, CDK18-NanoLuc/Cyclin Y in HEK-293; type: binding; conditions: CDK18/Y, 10µM
CDK18/Cyclin Y, sequence (Q07002 whole entry): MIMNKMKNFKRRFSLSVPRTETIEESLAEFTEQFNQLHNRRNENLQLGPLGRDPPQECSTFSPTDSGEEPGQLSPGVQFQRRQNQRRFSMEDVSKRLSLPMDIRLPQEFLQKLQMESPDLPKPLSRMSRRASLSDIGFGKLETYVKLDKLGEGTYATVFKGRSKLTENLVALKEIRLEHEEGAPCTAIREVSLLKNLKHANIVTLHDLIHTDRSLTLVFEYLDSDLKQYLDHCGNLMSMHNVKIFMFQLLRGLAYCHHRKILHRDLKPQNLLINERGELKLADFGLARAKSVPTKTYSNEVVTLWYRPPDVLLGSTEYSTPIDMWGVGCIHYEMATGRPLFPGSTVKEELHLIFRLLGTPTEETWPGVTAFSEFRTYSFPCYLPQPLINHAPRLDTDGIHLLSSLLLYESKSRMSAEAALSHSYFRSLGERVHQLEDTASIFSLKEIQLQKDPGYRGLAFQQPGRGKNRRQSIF
CDK18/Cyclin Y, sequence (Q8ND76 whole entry partner): as the sequence (Q8ND76 whole entry partner) above

[5] = target: CDK8/Cyclin C (Homo sapiens, UniProt P49336); assay: NanoBRET live-cell target engagement, NanoLuc-CDK8/Cyclin C in HEK-293; type: binding; conditions: CDK8/C; for inhibition at 10 µM: read-out: Inhibition at 10µM (%)
CDK8/Cyclin C, sequence (P49336 whole entry): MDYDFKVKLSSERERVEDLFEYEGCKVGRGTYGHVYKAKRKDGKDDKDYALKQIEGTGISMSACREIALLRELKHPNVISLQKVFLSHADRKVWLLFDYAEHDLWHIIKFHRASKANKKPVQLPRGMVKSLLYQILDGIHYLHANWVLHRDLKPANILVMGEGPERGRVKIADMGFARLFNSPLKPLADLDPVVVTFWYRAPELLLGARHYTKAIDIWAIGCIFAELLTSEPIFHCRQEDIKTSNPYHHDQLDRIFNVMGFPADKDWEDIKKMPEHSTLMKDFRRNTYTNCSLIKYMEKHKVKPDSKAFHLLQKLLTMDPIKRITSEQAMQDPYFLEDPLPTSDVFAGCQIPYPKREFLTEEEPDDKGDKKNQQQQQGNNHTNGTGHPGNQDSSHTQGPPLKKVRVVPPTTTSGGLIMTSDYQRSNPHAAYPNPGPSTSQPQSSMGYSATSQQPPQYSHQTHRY
CDK8/Cyclin C, sequence (P24863 whole entry partner): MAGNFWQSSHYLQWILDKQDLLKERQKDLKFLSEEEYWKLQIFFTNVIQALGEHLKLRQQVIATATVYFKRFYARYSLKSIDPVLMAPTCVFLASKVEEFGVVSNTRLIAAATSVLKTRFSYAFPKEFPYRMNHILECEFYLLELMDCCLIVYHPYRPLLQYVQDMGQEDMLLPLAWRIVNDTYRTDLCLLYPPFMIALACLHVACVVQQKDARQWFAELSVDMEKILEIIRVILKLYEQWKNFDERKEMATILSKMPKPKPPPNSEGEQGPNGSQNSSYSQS

[6] = target: T1, CDK10/Cyclin L2 (Homo sapiens, UniProt Q15131); assay: NanoBRET live-cell target engagement, CDK10-NanoLuc/Cyclin L2 in HEK-293; conditions: for IC50: n=1; for inhibition at 10 µM: read-out: Inhibition at 10µM (%), CDK10/L2
T1 sequence (Q15131 whole entry): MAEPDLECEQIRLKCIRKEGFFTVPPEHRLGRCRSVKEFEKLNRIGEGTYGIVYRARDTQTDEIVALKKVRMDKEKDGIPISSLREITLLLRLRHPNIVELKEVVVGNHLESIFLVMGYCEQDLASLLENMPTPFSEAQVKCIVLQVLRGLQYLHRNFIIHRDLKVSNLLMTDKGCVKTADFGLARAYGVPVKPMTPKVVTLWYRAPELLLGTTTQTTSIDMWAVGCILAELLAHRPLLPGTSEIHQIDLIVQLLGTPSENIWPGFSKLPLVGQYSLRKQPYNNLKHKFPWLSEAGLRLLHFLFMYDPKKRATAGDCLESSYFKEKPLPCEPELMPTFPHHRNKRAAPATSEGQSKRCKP

[7] = target: CDK2/Cyclin E1 (Homo sapiens, UniProt P24941); assay: NanoBRET live-cell target engagement, CDK2-NanoLuc/Cyclin E1 in HEK-293; type: binding; conditions: CDK2/E1, 10µM
[8] = target: CDK19/Cyclin C (Homo sapiens, UniProt Q9BWU1); assay: NanoBRET live-cell target engagement, NanoLuc-CDK19/Cyclin C in HEK-293; conditions: for inhibition at 10 µM: read-out: Inhibition at 10µM (%), CDK19/C
CDK19/Cyclin C, sequence (Q9BWU1 whole entry): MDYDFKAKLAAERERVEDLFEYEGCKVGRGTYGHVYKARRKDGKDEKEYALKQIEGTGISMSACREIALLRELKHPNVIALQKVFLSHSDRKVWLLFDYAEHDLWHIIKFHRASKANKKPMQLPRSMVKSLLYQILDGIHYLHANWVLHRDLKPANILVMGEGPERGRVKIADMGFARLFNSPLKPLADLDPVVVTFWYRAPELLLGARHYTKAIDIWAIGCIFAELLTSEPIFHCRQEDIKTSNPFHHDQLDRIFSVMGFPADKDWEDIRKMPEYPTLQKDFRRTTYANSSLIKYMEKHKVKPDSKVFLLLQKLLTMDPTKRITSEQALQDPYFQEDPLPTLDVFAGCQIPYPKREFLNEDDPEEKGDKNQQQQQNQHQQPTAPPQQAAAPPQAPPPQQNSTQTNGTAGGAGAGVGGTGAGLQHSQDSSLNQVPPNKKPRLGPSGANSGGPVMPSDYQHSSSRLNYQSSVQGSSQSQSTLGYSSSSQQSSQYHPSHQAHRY
CDK19/Cyclin C, sequence (P24863 whole entry partner): as the sequence (P24863 whole entry partner) above

[9] = target: CDK3/Cyclin E1 (Homo sapiens, UniProt Q00526); assay: NanoBRET live-cell target engagement, CDK3-NanoLuc/Cyclin E1 in HEK-293; type: binding; conditions: CDK3/E1, 10µM
CDK3/Cyclin E1, sequence (Q00526 whole entry): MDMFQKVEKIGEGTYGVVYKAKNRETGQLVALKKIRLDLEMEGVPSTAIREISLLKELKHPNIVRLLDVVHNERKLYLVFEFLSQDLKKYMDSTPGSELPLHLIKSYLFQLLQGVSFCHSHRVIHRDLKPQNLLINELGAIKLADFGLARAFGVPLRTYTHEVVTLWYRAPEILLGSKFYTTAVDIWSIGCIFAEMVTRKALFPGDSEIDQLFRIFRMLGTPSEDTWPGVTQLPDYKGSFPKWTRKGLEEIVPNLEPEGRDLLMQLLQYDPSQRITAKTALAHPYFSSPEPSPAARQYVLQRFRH
CDK3/Cyclin E1, sequence (P24864 whole entry partner): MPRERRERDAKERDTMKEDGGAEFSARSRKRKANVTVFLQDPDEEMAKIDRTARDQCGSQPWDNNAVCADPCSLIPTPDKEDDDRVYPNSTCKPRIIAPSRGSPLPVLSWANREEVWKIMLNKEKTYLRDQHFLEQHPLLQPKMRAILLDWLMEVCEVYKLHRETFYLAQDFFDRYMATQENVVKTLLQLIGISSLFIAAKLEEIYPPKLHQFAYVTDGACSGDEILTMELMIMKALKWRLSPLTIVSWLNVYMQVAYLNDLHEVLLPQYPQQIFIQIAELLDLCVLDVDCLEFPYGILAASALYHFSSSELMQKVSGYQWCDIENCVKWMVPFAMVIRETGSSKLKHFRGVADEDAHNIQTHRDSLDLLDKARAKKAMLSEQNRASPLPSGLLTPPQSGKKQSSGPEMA

[10] = target: CDK12/Cyclin K (Homo sapiens, UniProt Q9NYV4); assay: NanoBRET live-cell target engagement, CDK12-NanoLuc/Cyclin K in HEK-293; type: binding; conditions: CDK12/K, 10µM
[11] = target: CDK4/Cyclin D1 (Homo sapiens, UniProt P11802); assay: NanoBRET live-cell target engagement, NanoLuc-CDK4/Cyclin D1 in HEK-293; type: binding; conditions: CDK4/D1, 10µM
[12] = target: CDK11B/Cyclin L2 (Homo sapiens, UniProt P21127); assay: NanoBRET live-cell target engagement, CDK11B-NanoLuc/Cyclin L2 in HEK-293; type: binding; conditions: CDK11b/L2; for inhibition at 10 µM: read-out: Inhibition at 10µM (%)
[13] = target: CDK13/Cyclin K (Homo sapiens, UniProt Q14004); assay: NanoBRET live-cell target engagement, CDK13-NanoLuc/Cyclin K in HEK-293; type: binding; conditions: CDK13/K, 10µM
[14] = target: T2, CDK11A/Cyclin L2 (Homo sapiens, UniProt Q9UQ88); assay: NanoBRET live-cell target engagement, CDK11A-NanoLuc/Cyclin L2 in HEK-293; type: binding; conditions: CDK11a/L2; for inhibition at 10 µM: read-out: Inhibition at 10µM (%)
T2 sequence (Q9UQ88 1-783): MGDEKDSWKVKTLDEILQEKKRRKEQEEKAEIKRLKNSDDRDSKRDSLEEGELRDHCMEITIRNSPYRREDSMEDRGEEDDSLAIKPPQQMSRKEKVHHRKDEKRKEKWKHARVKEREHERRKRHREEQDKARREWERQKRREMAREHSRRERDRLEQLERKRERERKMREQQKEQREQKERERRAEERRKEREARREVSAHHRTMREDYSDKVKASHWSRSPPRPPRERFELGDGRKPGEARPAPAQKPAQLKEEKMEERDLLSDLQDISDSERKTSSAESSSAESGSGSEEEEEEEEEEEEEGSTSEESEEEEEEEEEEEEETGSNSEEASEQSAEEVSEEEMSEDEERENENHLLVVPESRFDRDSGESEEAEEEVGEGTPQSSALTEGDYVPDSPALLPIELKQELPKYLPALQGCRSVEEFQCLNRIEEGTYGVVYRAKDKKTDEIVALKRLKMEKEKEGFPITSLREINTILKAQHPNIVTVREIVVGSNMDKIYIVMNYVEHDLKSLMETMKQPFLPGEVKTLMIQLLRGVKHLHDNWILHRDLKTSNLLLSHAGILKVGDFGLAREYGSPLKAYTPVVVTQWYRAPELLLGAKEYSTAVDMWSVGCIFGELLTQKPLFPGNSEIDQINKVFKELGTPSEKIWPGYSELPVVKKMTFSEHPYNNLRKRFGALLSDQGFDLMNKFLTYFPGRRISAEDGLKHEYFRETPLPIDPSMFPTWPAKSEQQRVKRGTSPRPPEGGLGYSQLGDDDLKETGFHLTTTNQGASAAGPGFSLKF

[15] = target: CDK17/Cyclin Y (Homo sapiens, UniProt Q00537); assay: NanoBRET live-cell target engagement, CDK17-NanoLuc/Cyclin Y in HEK-293; type: binding; conditions: CDK17/Y, 10µM
CDK17/Cyclin Y, sequence (Q00537 whole entry): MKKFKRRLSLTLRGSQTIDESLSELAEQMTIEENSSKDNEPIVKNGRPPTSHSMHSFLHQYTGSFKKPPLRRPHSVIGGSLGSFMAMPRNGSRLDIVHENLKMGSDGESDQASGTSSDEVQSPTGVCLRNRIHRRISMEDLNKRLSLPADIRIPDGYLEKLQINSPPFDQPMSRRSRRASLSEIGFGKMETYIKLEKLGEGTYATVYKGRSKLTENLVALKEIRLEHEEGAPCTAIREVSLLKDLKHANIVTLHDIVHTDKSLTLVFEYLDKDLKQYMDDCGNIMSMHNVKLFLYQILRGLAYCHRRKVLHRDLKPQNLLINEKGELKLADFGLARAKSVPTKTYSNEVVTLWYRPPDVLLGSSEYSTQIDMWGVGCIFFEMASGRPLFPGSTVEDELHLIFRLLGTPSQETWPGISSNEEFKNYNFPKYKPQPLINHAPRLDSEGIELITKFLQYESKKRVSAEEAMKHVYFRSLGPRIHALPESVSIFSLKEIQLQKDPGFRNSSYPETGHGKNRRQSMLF
CDK17/Cyclin Y, sequence (Q8ND76 whole entry partner): as the sequence (Q8ND76 whole entry partner) above

[16] = target: CDK9/Cyclin K (Homo sapiens, UniProt P50750); assay: NanoBRET live-cell target engagement, NanoLuc-CDK9/Cyclin K in HEK-293; type: binding; conditions: CDK9/K, 10µM
[17] = target: CDK20/Cyclin H (Homo sapiens, UniProt Q8IZL9); assay: NanoBRET live-cell target engagement, NanoLuc-CDK20/Cyclin H in HEK-293; type: binding; conditions: for inhibition at 10 µM: read-out: Inhibition at 10µM (%), CDK20/H
[18] = target: CDK1/Cyclin E1 (Homo sapiens, UniProt P06493); assay: NanoBRET live-cell target engagement, CDK1-NanoLuc/Cyclin E1 in HEK-293; type: binding; conditions: CDK1/E1, 10µM
[19] = target: CDK7 (Homo sapiens, UniProt P50613); assay: NanoBRET live-cell target engagement, NanoLuc-CDK7 in HEK-293; type: binding
[20] = target: CDK16/Cyclin Y (Homo sapiens, UniProt Q00536); assay: NanoBRET live-cell target engagement, CDK16-NanoLuc/Cyclin Y in HEK-293; type: binding; conditions: CDK16/Y; 10µM
[21] = target: CDK5/CDK5R1 (Homo sapiens, UniProt Q00535); assay: NanoBRET live-cell target engagement, CDK5-NanoLuc/CDK5R1 in HEK-293; type: binding; conditions: CDK5/CDK5R1, 10µM
CDK5/CDK5R1, sequence (Q00535 whole entry): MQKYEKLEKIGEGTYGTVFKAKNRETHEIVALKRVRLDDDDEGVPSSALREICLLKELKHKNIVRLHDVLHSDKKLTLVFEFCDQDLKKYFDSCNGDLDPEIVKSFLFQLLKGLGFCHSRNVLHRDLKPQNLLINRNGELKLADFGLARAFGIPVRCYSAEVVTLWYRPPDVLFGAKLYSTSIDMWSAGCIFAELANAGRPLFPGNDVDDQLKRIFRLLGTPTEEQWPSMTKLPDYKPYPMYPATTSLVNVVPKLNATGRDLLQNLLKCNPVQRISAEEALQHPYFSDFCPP
CDK5/CDK5R1, sequence (Q15078 whole entry partner): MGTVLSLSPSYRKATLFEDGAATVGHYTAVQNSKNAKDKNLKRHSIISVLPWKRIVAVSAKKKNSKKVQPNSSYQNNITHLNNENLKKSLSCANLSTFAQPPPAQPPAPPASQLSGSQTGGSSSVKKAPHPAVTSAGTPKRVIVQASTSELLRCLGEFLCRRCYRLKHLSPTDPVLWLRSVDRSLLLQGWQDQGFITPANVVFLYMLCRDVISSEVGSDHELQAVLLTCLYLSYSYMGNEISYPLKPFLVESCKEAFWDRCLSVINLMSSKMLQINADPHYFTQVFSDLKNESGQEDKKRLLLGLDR

[22] = target: CDK6/Cyclin D1 (Homo sapiens, UniProt Q00534); assay: NanoBRET live-cell target engagement, NanoLuc-CDK6/Cyclin D1 in HEK-293; type: binding; conditions: CDK6/D1, 10µM
[23] = target: T1, CDK10/Cyclin L2; assay: cell-based

Inhibition at 10µM (%) Replicate 1 [1]: -4.4%
Inhibition at 10µM (%) Replicate 2 [1]: -10.4%
Inhibition at 10µM (%) Average ([1]; average of replicates): -7.4%
Inhibition at 10µM (%) Replicate 1 [2]: 8.0%
Inhibition at 10µM (%) Replicate 2 [2]: 6.5%
Inhibition at 10µM (%) Average ([2]; average of replicates): 7.2%
Inhibition at 10µM (%) Replicate 1 [4]: 16.5%
Inhibition at 10µM (%) Replicate 2 [4]: 10.0%
Inhibition at 10µM (%) Average ([4]; average of replicates): 13.2%
Inhibition at 10µM (%) Replicate 1 ([5]; 10µM): 6.1%
Inhibition at 10µM (%) Replicate 2 ([5]; 10µM): -10.6%
Inhibition at 10µM (%) Average ([5]; 10µM, average of replicates): -2.2%
Inhibition at 10µM (%) Replicate 1 ([6]; CDK10/L2, 10µM): 1.9%
Inhibition at 10µM (%) Replicate 2 ([6]; CDK10/L2, 10µM): 8.8%
Inhibition at 10µM (%) Average ([6]; CDK10/L2, 10µM, average of replicates): 5.4%
Inhibition at 10µM (%) Replicate 1 [7]: -7.9%
Inhibition at 10µM (%) Replicate 2 [7]: 7.7%
Inhibition at 10µM (%) Average ([7]; average of replicates): -0.109%
Inhibition at 10µM (%) Replicate 1 ([8]; CDK19/C, 10µM): 12.8%
Inhibition at 10µM (%) Replicate 2 ([8]; CDK19/C, 10µM): -7.7%
Inhibition at 10µM (%) Average ([8]; CDK19/C, 10µM, average of replicates): 2.6%
Inhibition at 10µM (%) Replicate 1 [9]: 4.4%
Inhibition at 10µM (%) Replicate 2 [9]: 3.4%
Inhibition at 10µM (%) Average ([9]; average of replicates): 3.9%
Inhibition at 10µM (%) Replicate 1 [10]: 6.2%
Inhibition at 10µM (%) Replicate 2 [10]: -2.0%
Inhibition at 10µM (%) Average ([10]; average of replicates): 2.1%
Inhibition at 10µM (%) Replicate 1 [11]: 13.2%
Inhibition at 10µM (%) Replicate 2 [11]: 14.4%
Inhibition at 10µM (%) Average ([11]; average of replicates): 13.8%
Inhibition at 10µM (%) Replicate 1 ([12]; 10µM): 8.9%
Inhibition at 10µM (%) Replicate 2 ([12]; 10µM): -3.2%
Inhibition at 10µM (%) Average ([12]; 10µM, average of replicates): 2.8%
Inhibition at 10µM (%) Replicate 1 [13]: 3.0%
Inhibition at 10µM (%) Replicate 2 [13]: -9.6%
Inhibition at 10µM (%) Average ([13]; average of replicates): -3.3%
Inhibition at 10µM (%) Replicate 1 ([14]; 10µM): -5.6%
Inhibition at 10µM (%) Replicate 2 ([14]; 10µM): 5.6%
Inhibition at 10µM (%) Average ([14]; 10µM, average of replicates): -0.00201%
Inhibition at 10µM (%) Replicate 1 [15]: 0.247%
Inhibition at 10µM (%) Replicate 2 [15]: 1.8%
Inhibition at 10µM (%) Average ([15]; average of replicates): 1.0%
Inhibition at 10µM (%) Replicate 1 [16]: 12.5%
Inhibition at 10µM (%) Replicate 2 [16]: 29.1%
Inhibition at 10µM (%) Average ([16]; average of replicates): 20.8%
Inhibition at 10µM (%) Replicate 1 ([17]; CDK20/H, 10µM): 14.8%
Inhibition at 10µM (%) Replicate 2 ([17]; CDK20/H, 10µM): 26.9%
Inhibition at 10µM (%) Replicate 1 [18]: 19.1%
Inhibition at 10µM (%) Replicate 2 [18]: 12.1%
Inhibition at 10µM (%) Average ([18]; average of replicates): 15.6%
Inhibition at 10µM (%) Replicate 1 ([19]; CDK7, 10µM): 9.8%
Inhibition at 10µM (%) Replicate 2 ([19]; CDK7, 10µM): 16.0%
Inhibition at 10µM (%) Average ([19]; CDK7, 10µM, average of replicates): 12.9%
Inhibition at 10µM (%) Replicate 1 [20]: 4.2%
Inhibition at 10µM (%) Replicate 2 [20]: -9.2%
Inhibition at 10µM (%) Replicate 1 [21]: 7.9%
Inhibition at 10µM (%) Replicate 2 [21]: -3.3%
Inhibition at 10µM (%) Average ([21]; average of replicates): 2.3%
Inhibition at 10µM (%) Replicate 1 [22]: 5.5%
Inhibition at 10µM (%) Replicate 2 [22]: 5.4%
Inhibition at 10µM (%) Average ([22]; average of replicates): 5.5%
Structure (SMILES): O=C(Nc1c[nH]nc1-c1ccccn1)c1nn(C2CCNCC2)cc1Cl [BDP5290]
engagement of CDKs at concentrations up to 10μM [3]: only weakly engaged

Structure (SMILES): CCc1cnn2c(NCc3ccc[n+]([O-])c3)cc(N3CCCC[C@H]3CCO)nc12 [Dinaciclib]
IC50 [23]: 720 nM
inhibition at 10 µM ([5]; average): 24.5%
inhibition at 10 µM ([5]; experiment 1): 40.6%
inhibition at 10 µM ([5]; experiment 2): 8.4%
IC50 ([6]; IC50, [Probe 1] 0.5 µM): 850 nM
IC50 ([6]; IC50, [Probe 1] 1 µM): 740 nM
inhibition at 10 µM ([6]; average): 74.8%
inhibition at 10 µM ([6]; experiment 1): 77.5%
inhibition at 10 µM ([6]; experiment 2): 72.2%
inhibition at 10 µM ([8]; average): 35.5%
inhibition at 10 µM ([8]; experiment 1): 46.2%
inhibition at 10 µM ([8]; experiment 2): 24.7%
inhibition at 10 µM ([12]; average): 45.5%
inhibition at 10 µM ([12]; experiment 1): 46.1%
inhibition at 10 µM ([12]; experiment 2): 45%
inhibition at 10 µM ([14]; average): 33%
inhibition at 10 µM ([14]; experiment 1): 36%
inhibition at 10 µM ([14]; experiment 2): 29.9%
inhibition at 10 µM ([17]; experiment 1): 71.7%
inhibition at 10 µM ([17]; experiment 2): 78%
inhibition at 10 µM ([19]; CDK7, experiment 1, read-out: Inhibition at 10µM (%)): 94.8%
inhibition at 10 µM ([19]; CDK7, experiment 2, read-out: Inhibition at 10µM (%)): 91.5%
inhibition at 10 µM ([19]; read-out: Inhibition at 10µM (%), CDK7, average): 93.1%
